Patent US4876260A, “Oxathiolanes” (State of Israel, Israel Institute of Biological Research, priority 1988, dated 1989)

Assays:
[1] = target: muscarinic receptors (3H-QNB sites, frontal cortex); format: binding, rat; conditions: (b') frontal cortex
[2] = target: T1, M1 muscarinic receptors (3H-PZ sites, forebrain) (Rattus norvegicus, UniProt P08482); experiment: Displacement of 3H-Pirenzepine (3H-PZ, selective M1 antagonist) from rat forebrain homogenate; format: binding; conditions: for M1 selectivity (in words): from Tables 2A, 2B, 2C
T1 sequence (P08482 1-460): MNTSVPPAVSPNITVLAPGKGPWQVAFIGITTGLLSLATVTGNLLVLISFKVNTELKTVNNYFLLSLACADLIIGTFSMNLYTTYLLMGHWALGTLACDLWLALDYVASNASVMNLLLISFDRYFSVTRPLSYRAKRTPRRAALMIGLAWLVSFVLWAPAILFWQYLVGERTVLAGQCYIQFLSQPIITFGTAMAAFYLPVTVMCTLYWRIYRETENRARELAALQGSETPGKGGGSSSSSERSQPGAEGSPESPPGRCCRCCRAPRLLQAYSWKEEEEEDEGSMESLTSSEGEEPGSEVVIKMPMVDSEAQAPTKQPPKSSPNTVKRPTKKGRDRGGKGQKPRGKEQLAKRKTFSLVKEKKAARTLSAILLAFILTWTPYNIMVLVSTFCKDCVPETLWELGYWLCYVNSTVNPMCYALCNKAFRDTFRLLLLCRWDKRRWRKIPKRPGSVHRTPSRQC

[3] = target: T2, M1 muscarinic receptors (3H-PZ sites, frontal cortex) (Rattus norvegicus, UniProt P08482); experiment: Displacement of 3H-PZ from rat frontal cortex homogenate; format: binding; conditions: for Ki: (a') frontal cortex, read-out: Ki(3H-PZ); for a':c', Ki(3H-PZ):Ki(3H-CD): (g) frontal cortex ratio
T2 sequence (P08482 1-460): T1 sequence (P08482 1-460)

[4] = test system: muscarinic receptors (3H-QNB sites, cerebellum, mainly M2); experiment: biochemical; format: binding, rat; conditions: for b':b": (k) Ki(3H-QNB) frontal cortex : Ki(3H-QNB) cerebellum
[5] = target: T3, muscarinic receptors (3H-QNB sites, cerebellum, mainly M2) (Rattus norvegicus, UniProt P10980); experiment: biochemical; format: binding; conditions: Ki(3H-QNB), (b") cerebellum
T3 sequence (P10980 1-466): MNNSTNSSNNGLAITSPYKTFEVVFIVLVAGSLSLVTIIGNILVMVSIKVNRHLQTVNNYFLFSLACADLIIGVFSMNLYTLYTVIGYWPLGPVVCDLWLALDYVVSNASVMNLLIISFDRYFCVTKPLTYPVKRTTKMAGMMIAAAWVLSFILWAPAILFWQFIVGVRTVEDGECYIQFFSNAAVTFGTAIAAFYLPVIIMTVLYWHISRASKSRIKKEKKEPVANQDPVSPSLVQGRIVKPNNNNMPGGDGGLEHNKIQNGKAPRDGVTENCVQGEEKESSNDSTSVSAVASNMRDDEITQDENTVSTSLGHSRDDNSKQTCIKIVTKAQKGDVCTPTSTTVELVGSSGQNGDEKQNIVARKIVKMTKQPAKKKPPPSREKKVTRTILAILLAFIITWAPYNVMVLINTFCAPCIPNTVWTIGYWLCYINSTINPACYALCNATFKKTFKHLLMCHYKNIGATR

mice = experiment: Pharmacodynamic profile and general toxicity in mice; format: in vivo, CD-1 mice
Protocol: Male white mice of the CD-1 strain supplied by Charles River Ltd. (U.K.) were used throughout. An acclimatization period of at least three days was allowed between arrival and commencement of a particular experimental series. The animals were fed a complete commercial pelleted rodent diet without restriction during the acclimatization and study periods. Animals had free access to tap water. Body weights during testing were mostly within 20-28 g.
Test materials were prepared as aqueous solutions in physiological saline (0.9% NaCl), up to a maximum concentration of 10 mg./ml. All materials were freshly prepared on the morning prior to each dosing session. Dosages were expressed gravimetrically (mg./kg.), in terms of the materials as received.
Groups of mice (mostly n=5) received either i.v. or oral administration of the test materials at various dose levels. Dose volumes appropriate for respective dose levels selected, were determined for each animal according to body weights on the day of dosing. Any behavioral changes occurring during one to two hours after administration, as well as incidence of death up to 24 hours after dosing were recorded.

[6] = target: muscarinic receptors (3H-CD sites, frontal cortex); experiment: Displacement of 3H-CD from rat frontal cortex homogenate; format: binding; conditions: (c') frontal cortex
[7] = target: muscarinic receptors (3H-QNB sites, M1 and M2, forebrain); format: binding, rat; conditions: (b) forebrain
[8] = test system: isolated guinea-pig ileum; experiment: Contraction of isolated guinea-pig ileum preparation
Source text: (§1) From this Table, it appears that compounds (III) were not so effective in contracting the guinea pig ileum preparation.

[9] = test system: ACh-induced contractions of guinea-pig ileum; experiment: Blocking of ACh-induced contractions of isolated guinea-pig ileum; conditions: listed as AF122B
Source text: as §1

[10] = 25 mg/kg i.v., listed as (±)-III AF122B
[11] = 100 mg/kg p.o., listed as (±)-III AF122B
[12] = 200 mg/kg p.o., listed as (±)-III AF122B

## C[C@H]1O[C@@]2(CN3CCC2CC3)CS1(=O)=O (relative stereo) [compound 14, cis-2-methylspiro(1,3-oxathiolan-5,3')quinuclidine-3,3-dioxide]
[1]
  Ki: 34.1 ± 3 µM
[2]; compared with (±)-cis-(II)
  potency (in words): losing some of its potency
[2]
  M1 selectivity (in words): high M1 selectivity
[2]; listed as (±)-cis-(II)-sulfone
  M1 selectivity (in words): still preserved an outstanding profile as judged by its M1 selectivity (ratio a':c')
[3]
  a':b', Ki(3H-PZ):Ki(3H-QNB): 0.18
  Ki: 5.5 ± 0.43 µM
  a':c', Ki(3H-PZ):Ki(3H-CD): 1.8
[4]; (i) Ki(3H-PZ) frontal cortex : Ki(3H-QNB) cerebellum
  a':b": 2.6
[4]
  b':b": 0.77
[5]
  Ki: 44.1 ± 6.5 µM
mice; 50 mg/kg i.v.
  Analgesia (nonresponsiveness to tail pinch), No. affected/total treated: 3/5
  Mortality, No. dead/total treated: 0/5
mice; 100 mg/kg i.v.
  Analgesia (nonresponsiveness to tail pinch), No. affected/total treated: 5/5
  Mortality, No. dead/total treated: 0/5
mice; 100 mg/kg p.o.
  Mortality, No. dead/total treated: 0/5
mice; 200 mg/kg p.o.
  Analgesia (nonresponsiveness to tail pinch), No. affected/total treated: 5/5
  Mortality, No. dead/total treated: 0/5
[6]
  Ki: 3.06 ± 2 µM

## CC1OCC2(CN3CCC2CC3)S1 (stereo not drawn) [compound 7, 2-methylspiro(1,3-oxathiolan-4,3')quinuclidine]
[2]
  a:b, Ki(3H-PZ):Ki(3H-QNB): 0.17
[2]; (a) forebrain
  Ki: 1.22 ± 0.4 µM
[2]; listed as Compound (III)
  M1 selectivity (in words): M1 selectivity is preserved even in the mixture of the geometrical isomers
[7]
  Ki: 7 ± 0.5 µM

## CC1OCC2(CN3CCC2CC3)S1 (stereo not drawn) [compound 8, 2-methylspiro(1,3-oxathiolan-4,3')quinuclidine]
[8]
  Desensitization: desensitization that was observed
[8]; listed as AF122B
  Blocking of the contractions by atropine (remarks): the contractions were only partially blocked by atropine
  Contraction of guinea pig ileum (in words): contracted the ileum muscle
[1]
  Ki: 15.3 ± 2.2 µM
[3]
  a':b', Ki(3H-PZ):Ki(3H-QNB): 0.11
  Ki: 1.66 ± 0.24 µM
  a':c', Ki(3H-PZ):Ki(3H-CD): 0.7
[9]
  Effect on ACh-induced contractions (in words): consistently blocked ACh-induced contractions
[4]
  b':b": 0.73
[5]
  Ki: 21.1 ± 7.6 µM
mice; 10 mg/kg i.v., listed as (±)-III AF122B
  Mortality, No. dead/total treated: 0/3
mice; [10]
  Analgesia (nonresponsiveness to tail pinch), No. affected/total treated: 2/5
  Convulsive seizures, No. affected/total treated: 5/5
  Exophthalmus, No. affected/total treated: 2/5
  Mortality, No. dead/total treated: 3/5
  Respiratory distress, No. affected/total treated: 2/5
  Tremors, No. affected/total treated: 5/5
mice; 50 mg/kg i.v.
  Convulsive seizures, No. affected/total treated: 2/2
  Mortality, No. dead/total treated: 2/2
  Mortality, time after drug administration: 5 s
  Tremors, No. affected/total treated: 2/2
mice; 50 mg/kg p.o.
  Mortality, No. dead/total treated: 0/5
mice; 100 mg/kg i.v.
  Mortality, No. dead/total treated: 2/2
mice; 100 mg/kg i.v., immed = immediately
  Mortality, time after drug administration: immed
mice; 100 mg/kg p.o.
  Analgesia (nonresponsiveness to tail pinch), No. affected/total treated: 4/4
  Convulsive seizures, No. affected/total treated: 4/4
  Vocalization, No. affected/total treated: 1/4
mice; [11]
  Mortality, No. dead/total treated: 1/4
  Tremors, No. affected/total treated: 4/4
mice; 100 mg/kg p.o., m = minutes
  Mortality, time after drug administration: 15 m
mice; 200 mg/kg p.o.
  Analgesia (nonresponsiveness to tail pinch), No. affected/total treated: 4/4
  Respiratory distress, No. affected/total treated: 4/4
  Vocalization, No. affected/total treated: 2/4
mice; [12]
  Convulsive seizures, No. affected/total treated: 4/4
  Mortality, No. dead/total treated: 4/4
  Tremors, No. affected/total treated: 4/4
mice; 200 mg/kg p.o., m = minutes
  Mortality, time after drug administration: 15 m
[6]
  Ki: 2.3 µM
